ChEMBL document CHEMBL3421531, “Synthesis, and structure-activity relationship for C(4) and/or C(5) thienyl substituted pyrimidines, as a new family of antimycobacterial compounds” (Eur J Med Chem, 2015)
Values after ≈ are worked out from the molar mass of the structure shown.

Experiments:
[1] = test system: Mycobacterium tuberculosis; assay: Antimycobacterial activity against Mycobacterium tuberculosis H37Rv after 10 days by microbroth dilution method; assay type: functional; settings: 240 h
Mycobacterium avium = assay: Antimycobacterial activity against Mycobacterium avium after 10 days by microbroth dilution method; assay type: functional; settings: 240 h
Mycolicibacter terrae = assay: Antimycobacterial activity against Mycobacterium terrae after 10 days by microbroth dilution method; assay type: functional; settings: 240 h
[2] = Toxicity in peroral dosed mouse after 14 days; assay type: organism-based; settings: in vivo, po

Structure (SMILES)	MIC [1]	MIC (Mycobacterium avium)	MIC (Mycolicibacter terrae)	LD50 at 336 h [2]
NNC(=O)c1ccncc1 [ISONIAZID]	0.73 µM (≈ 0.1 µg/mL)	0.73 µM (≈ 0.1 µg/mL)	0.73 µM (≈ 0.1 µg/mL)	–
c1csc(-c2ccc(-c3ncncc3-c3cccs3)s2)c1	2.14 µM (≈ 0.699 µg/mL)	0.92 µM (≈ 0.3 µg/mL)	0.92 µM (≈ 0.3 µg/mL)	160 mg/kg
c1ccc(-c2ccc(-c3cncnc3)s2)cc1	26.2 µM (≈ 6.25 µg/mL)	26.2 µM (≈ 6.25 µg/mL)	26.2 µM (≈ 6.25 µg/mL)	–
c1ccc2c(-c3cncnc3)csc2c1	7.07 µM (≈ 1.5 µg/mL)	3.3 µM (≈ 0.701 µg/mL)	3.3 µM (≈ 0.701 µg/mL)	700 mg/kg
Brc1ccc(-c2ncncc2-c2cccs2)s1	38.7 µM (≈ 12.5 µg/mL)	38.7 µM (≈ 12.5 µg/mL)	38.7 µM (≈ 12.5 µg/mL)	–
c1ccc(-c2ccc(-c3ncncc3-c3csc4ccccc34)s2)cc1	0.4 µM (≈ 0.148 µg/mL)	0.4 µM (≈ 0.148 µg/mL)	0.4 µM (≈ 0.148 µg/mL)	45 mg/kg
c1csc(-c2ccc(-c3cncnc3)s2)c1	25.6 µM (≈ 6.25 µg/mL)	25.6 µM (≈ 6.25 µg/mL)	25.6 µM (≈ 6.25 µg/mL)	–
NC(=O)c1cnccn1 [PYRAZINAMIDE]	102 µM (≈ 12.5 µg/mL)	–	–	–
c1csc(-c2ccc(-c3ccncn3)s2)c1	51.2 µM (≈ 12.5 µg/mL)	51.2 µM (≈ 12.5 µg/mL)	51.2 µM (≈ 12.5 µg/mL)	–
c1csc(-c2ccc(-c3ncncc3-c3cc4ccccc4s3)s2)c1	33.2 µM (≈ 12.5 µg/mL)	33.2 µM (≈ 12.5 µg/mL)	33.2 µM (≈ 12.5 µg/mL)	–
c1csc(-c2ncncc2-c2ccsc2)c1	25.6 µM (≈ 6.25 µg/mL)	25.6 µM (≈ 6.25 µg/mL)	25.6 µM (≈ 6.25 µg/mL)	–
c1ccc(-c2ccc(-c3ncncc3-c3ccsc3)s2)cc1	19.5 µM (≈ 6.25 µg/mL)	19.5 µM (≈ 6.25 µg/mL)	19.5 µM (≈ 6.25 µg/mL)	–
c1csc(-c2ccc(-c3ncncc3-c3ccsc3)s2)c1	19.1 µM (≈ 6.25 µg/mL)	19.1 µM (≈ 6.25 µg/mL)	19.1 µM (≈ 6.25 µg/mL)	–
c1csc(-c2ncncc2-c2cc3ccccc3s2)c1	21.2 µM (≈ 6.25 µg/mL)	21.2 µM (≈ 6.25 µg/mL)	21.2 µM (≈ 6.25 µg/mL)	–
c1ccc2sc(-c3cncnc3)cc2c1	58.9 µM (≈ 12.5 µg/mL)	58.9 µM (≈ 12.5 µg/mL)	58.9 µM (≈ 12.5 µg/mL)	–
c1ccc(-c2ccc(-c3ncncc3-c3cccs3)s2)cc1	39 µM (≈ 12.5 µg/mL)	39 µM (≈ 12.5 µg/mL)	39 µM (≈ 12.5 µg/mL)	–
c1csc(-c2cncnc2)c1	38.5 µM (≈ 6.25 µg/mL)	19.1 µM (≈ 3.1 µg/mL)	19.1 µM (≈ 3.1 µg/mL)	–
Brc1ccc(-c2ncncc2Br)s1	9.69 µM (≈ 3.1 µg/mL)	9.69 µM (≈ 3.1 µg/mL)	9.69 µM (≈ 3.1 µg/mL)	–
Brc1cncnc1	78.6 µM (≈ 12.5 µg/mL)	78.6 µM (≈ 12.5 µg/mL)	78.6 µM (≈ 12.5 µg/mL)	–
Brc1ccc(-c2ncncc2-c2cc3ccccc3s2)s1	33.5 µM (≈ 12.5 µg/mL)	33.5 µM (≈ 12.5 µg/mL)	33.5 µM (≈ 12.5 µg/mL)	–
c1ccc(-c2ccc(-c3ncncc3-c3cc4ccccc4s3)s2)cc1	8.37 µM (≈ 3.1 µg/mL)	8.37 µM (≈ 3.1 µg/mL)	4.05 µM (≈ 1.5 µg/mL)	–
Brc1ccc(-c2ncncc2-c2ccsc2)s1	19.3 µM (≈ 6.25 µg/mL)	19.3 µM (≈ 6.25 µg/mL)	19.3 µM (≈ 6.25 µg/mL)	–
c1ncc(-c2ccsc2)cn1	77.1 µM (≈ 12.5 µg/mL)	77.1 µM (≈ 12.5 µg/mL)	77.1 µM (≈ 12.5 µg/mL)	–
Brc1ccc(-c2cncnc2)s1	51.8 µM (≈ 12.5 µg/mL)	51.8 µM (≈ 12.5 µg/mL)	51.8 µM (≈ 12.5 µg/mL)	–
c1csc(-c2cncnc2-c2cccs2)c1	12.7 µM (≈ 3.1 µg/mL)	12.7 µM (≈ 3.1 µg/mL)	12.7 µM (≈ 3.1 µg/mL)	–
c1csc(-c2ccc(-c3ncncc3-c3csc4ccccc34)s2)c1	0.98 µM (≈ 0.369 µg/mL)	0.98 µM (≈ 0.369 µg/mL)	0.4 µM (≈ 0.151 µg/mL)	90 mg/kg
c1csc(-c2ncncc2-c2csc3ccccc23)c1	42.5 µM (≈ 12.5 µg/mL)	42.5 µM (≈ 12.5 µg/mL)	42.5 µM (≈ 12.5 µg/mL)	–
Brc1ccc(-c2ncncc2-c2csc3ccccc23)s1	8.3 µM (≈ 3.1 µg/mL)	8.3 µM (≈ 3.1 µg/mL)	4.02 µM (≈ 1.5 µg/mL)	–
